Results on 1 compound are retold here after patent US20160143884A1, “USE OF TETRAHYDROINDAZOLYLBENZAMIDE AND TETRAHYDROINDOLYLBENZAMIDE DERIVATIVES FOR THE TREATMENT OF HUMAN IMMUNODEFICIENCY VIRUS (HIV) AND ACQUIRED IMMUNE DEFICIENCY SYNDROME (AIDS)” (Esanex, Inc., priority 2014, published 2016).

Test [1] has as its system 2LTR non-integrated circular form of the HIV genome. Kind of test: HIV integration in 2LTR assay (real-time PCR). Type of test: cell-based, HIV-1.
In test [2] the test system is SIVmac251 virus. Kind of test: SIV inhibition in NHP PBMC, p27 antigen capture assay. Type of test: cell-based. The note with it: 0.0005 to 50 μM. The procedure:
Non-human primate (NHP) cells were activated in IL-2 growth medium (GM) containing PHA-P at a concentration of 10 μg/ml for 24 hrs. The next day cells were washed and re-suspended in fresh IL-2 GM. Compound 9 was serially diluted at concentrations ranging from 0.0005 to 50 μM in a 96 well u-bottom plate containing IL-2 GM. Activated cells were then added to the wells of the plate. SIVmac251 virus, diluted 1:25 in IL-2 GM, was subsequently added to the appropriate wells containing the compounds of interest and the cells except for controls. This virus represents the same virus preparation utilized for infection of the animals. The plate was then incubated overnight and, after extensive washing the next day, the plate was then placed back in the incubator at 37° C., 5% CO2.
On day 4-5, of the assay, supernatants were harvested and a SIV p27 antigen capture assay was used to detect SIV p27 in the supernatant. […] The percentage of inhibition in each experiment is reported in FIGS. 3b and 3c for test 1 and 2, respectively.

The subject of test [3] is HIV-1Ba-L. Kind of test: Anti-HIV efficacy evaluation in fresh human PBMCs (reverse transcriptase activity readout). It is filed as cell-based. The procedure:
Anti-HIV Efficacy Evaluation in Fresh Human PBMCs Assay Protocol:
Fresh human PBMCs, seronegative for HIV and HBV, are isolated from screened donors (Biological Specialty Corporation, Colmar, Pa.). Cells are pelleted/washed 2-3 times by low speed centrifugation and re-suspension in PBS to remove contaminating platelets. […] Banded PBMCs are gently aspirated from the resulting interface and subsequently washed 2× with PBS by low speed centrifugation. […] The cells are allowed to incubate for 48-72 hours at 37° C. […] IL-2 is included in the culture medium to maintain the cell division initiated by the PHA mitogenic stimulation. PBMCs are maintained in this medium at a concentration of 1-2×10^6 cells/mL with biweekly medium changes until used in the assay protocol. Cells are kept in culture for a maximum of two weeks before being deemed too old for use in assays and discarded. MDMs are depleted from the culture as the result of adherence to the tissue culture flask.
For the standard PBMC assay, PHA stimulated cells from at least two normal donors are pooled (mixed together), diluted in fresh medium to a final concentration of 1×10^6 cells/mL, and plated in the interior wells of a 96 well round bottom microplate at 50 uL/well (5×10^4 cells/well) in a standard format developed by the Infectious Disease Research department of Southern Research Institute. Pooling (mixing) of mononuclear cells from more than one donor is used to minimize the variability observed between individual donors, which results from quantitative and qualitative differences in HIV infection and overall response to the PHA and IL-2 of primary lymphocyte populations. Each plate contains virus/cell control wells (cells plus virus), experimental wells (drug plus cells plus virus) and compound control wells (drug plus media without cells, necessary for MTS monitoring of cytotoxicity). […] Therefore, infected wells are used in the assessment of both antiviral activity and cytotoxicity. Test drug dilutions are prepared at a 2× concentration in microtiter tubes and 100 μL of each concentration (nine total concentrations) are placed in appropriate wells using the standard format. 50 μL of a predetermined dilution of virus stock is placed in each test well (final MOI˜=0.1). The PBMC cultures are maintained for seven days following infection at 37° C., 5% CO2. After this period, cell-free supernatant samples are collected for analysis of reverse transcriptase activity and/or p24 antigen content. Following removal of supernatant samples, compound cytotoxicity is measured by addition of MTS to the plates for determination of cell viability. Wells are also examined microscopically and any abnormalities are noted.
Reverse Transcriptase Activity Assay Protocol:
Tritiated thymidine triphosphate (^3H-TTP, 80 Ci/mmol, NEN) is received in 1:1 dH2O:Ethanol at 1 mCi/mL. Poly rA:oligo dT template:primer (GE Healthcare) is prepared as a stock solution by combining 150 μL poly rA (20 mg/mL) with 0.5 mL oligo dT (20 units/mL) and 5.35 mL sterile dH2O followed by aliquoting (1.0 mL) and storage at −20° C. The RT reaction buffer is prepared fresh on a daily basis and consists of 125 μL 1.0 M EGTA, 125 μL dH2O, 125 μL 20% Triton X100, 50 μL 1.0 M Tris (pH 7.4), 50 μL 1.0 M DTT, and 40 μL 1.0 M MgCl2. The final reaction mixture is prepared by combining 1 part ^3H-TTP, 4 parts dH2O, 2.5 parts poly rA:oligo dT stock and 2.5 parts reaction buffer. Ten microliters of this reaction mixture is placed in a round bottom microtiter plate and 15 μL of virus containing supernatant is added and mixed. The plate is incubated at 37° C. for 60 minutes. Following incubation, the reaction volume is spotted onto DE81 filter-mats (Wallac), washed 5 times for 5 minutes each in a 5% sodium phosphate buffer or 2×SSC (Life Technologies).

The test system of test [4] is Hepatitis B Virus (HBV). Kind of test: Anti-HBV assay, real-time qPCR of extracellular HBV DNA in HepG2 2.2.15. Type of test: cell-based. The method, then:
The anti-HBV assay employed real-time qPCR (TaqMan) to directly measure extracellular HBV DNA copy number. HepG2-2.2.15 cells were plated in 96-well microtiter plates. Only the interior wells were utilized to reduce “edge effects” observed during cell culture; the exterior wells were filled with complete medium to help minimize sample evaporation. After 16-24 hours the confluent monolayer of HepG2-2.2.15 cells was washed and the medium replaced with complete medium containing various concentrations of a test compound in triplicate. 3TC was used as positive control, while media alone was added to cells as negative control (virus control, VC). Three days later the culture medium was replaced with fresh medium containing the appropriately diluted drug. Six days following the initial administration of the test compound, the cell culture supernatant collected, treated with pronase and then used in a real-time quantitative TaqMan qPCR assay. The PCR-amplified HBV DNA was detected in real-time by monitoring increases in fluorescence signals that result from the exonucleolytic degradation of a quenched fluorescent probe molecule that hybridizes to the amplified HBV DNA. For each PCR amplification, a standard curve was simultaneously generated using dilutions of purified HBV DNA. Antiviral activity was calculated from the reduction in HBV DNA levels (IC50). CellTiter 96® AQueous One Solution Cell Proliferation Assay kit (Promega) was employed to measure cell viability which was used to calculate cytotoxicity (TC50). The therapeutic index (TI) was calculated as TC50/IC50.

For the compound `CC1(C)CC(=O)c2c(C(F)(F)F)nn(-c3ccc(C(N)=O)c(N[C@H]4CC[C@H](O)CC4)c3)c2C1` [Compound 9, 4-(6,6-Dimethyl-4-oxo-3-trifluoromethyl-4,5,6,7-tetrahydro-indazol-1-yl)-2-(trans-4-hydroxy-cyclohexylamino)-benzamide], the “Expression level of 2LTR” value in test [1] (10 nM, both time points) was “expression levels similar to HIV Only”; in test [1] (100 nM), “highest expression levels of 2LTR over all other samples”; in test [1] (1 μM) it was “highest expression levels of 2LTR over all other samples”. Besides, in test [2], the “Amount of p27 in the supernatant of the cultures” value is listed as “dose-dependent reduction”. For the same compound, the “IC 95% (95% inhibition of virus replication)” value in test [3] (HIV-1Ba-L in PBMCs) came out at 11 nM. Moreover, the “Selectivity Index TI (TC50/IC50)” value was found to be 1.5 in test [3] (HIV-1Ba-L in PBMCs, 50%) and 0.12 in test [4] (HBV in HepG2 2.2.15). The “Selectivity index (TI) 90%” value in test [3] (HIV-1Ba-L in PBMCs, TC90/IC90) is reported as over 22.1. Also, the “Selectivity index (TI) 95%” value in test [3] (HIV-1Ba-L in PBMCs, TC95/IC95) is reported as over 18.2. In addition, the IC50 – broadly, the point on the concentration scale where inhibition reaches its midpoint – in test [3] (Human immunodeficiency virus 1, PBMC, 168 h, read-out: Antiviral Activity IC50 (50% inhibition of virus replication), HIV-1Ba-L in PBMCs, seven days) was found to be 20 nM; in test [4] (Hepatitis B virus, 144 h, HBV in HepG2 2.2.15, six days, read-out: Antiviral Activity IC50 (reduction in HBV DNA levels)) it was 600 nM. For the same compound, the IC90 in test [3] (Human immunodeficiency virus 1, PBMC, read-out: IC 90% (90% inhibition of virus replication)) was 90 nM; in test [4] (Hepatitis B virus, HBV in HepG2 2.2.15) it was over 2000 nM. Moreover, the “Activity against hepatitis B virus (in words)” value in test [4] was “inactive”.
